Laboratory results: ChEMBL document CHEMBL4665628, “Pyranocarbazole derivatives as potent anti-cancer agents triggering tubulin polymerization stabilization induced activation of caspase-dependent apoptosis and downregulation of Akt/mTOR in breast cancer cells” (Eur J Med Chem, 2019)
Where a name gives a salt, the structure may show the parent alone. Calls of active or inactive are those of the source. The rule behind the calls is not given here.

What was measured:
DLD-1 = test: cells; type: functional, cell-based; details: Homo sapiens, DLD-1, 24 h
Description: Anticancer activity against human DLD-1 cells assessed as cell growth inhibition measured after 24 hrs by MTT assay

PC-3 = test: cells; type: functional, cell-based; details: Homo sapiens, PC-3, 24 h
Description: Anticancer activity against human PC-3 cells assessed as cell growth inhibition measured after 24 hrs by MTT assay

HepG2 = test: cells; type: functional, cell-based; details: Homo sapiens, HepG2, 24 h
Description: Anticancer activity against human HepG2 cells assessed as cell growth inhibition measured after 24 hrs by MTT assay

A549 = test: cells; type: functional, cell-based; details: Homo sapiens, A549, 24 h
Description: Anticancer activity against human A549 cells assessed as cell growth inhibition measured after 24 hrs by MTT assay

DU-145 = test: cells; type: functional, cell-based; details: Homo sapiens, DU-145, 24 h
Description: Anticancer activity against human DU-145 cells assessed as cell growth inhibition measured after 24 hrs by MTT assay

MCF7 = test: cells; type: functional, cell-based; details: Homo sapiens, MCF7, 24 h
Description: Anticancer activity against human MCF7 cells assessed as cell growth inhibition measured after 24 hrs by MTT assay

HEK293 = test: cells; type: ADME, cell-based; details: Homo sapiens, HEK293, 24 h
Description: Cytotoxicity against HEK293 cells assessed as cell growth inhibition measured after 24 hrs by MTT assay

MDA-MB-231 [1] = test: cells; type: functional, cell-based; details: Homo sapiens, MDA-MB-231, 24 h
Description: Anticancer activity against human MDA-MB-231 cells assessed as cell growth inhibition measured after 24 hrs by MTT assay

Tubulin (Homo sapiens) = Tubulin (Homo sapiens) (UniProt P68371+Q9H4B7+P0DPH7+P68366+Q13509+Q71U36+P04350+Q3ZCM7+P07437+P68363+Q9BQE3+Q6PEY2+Q13885+Q9BVA1+Q9BUF5); test: Inhibition of tubulin (unknown origin) polymerization assessed as stabilization of microtubules at10 uM measured up to 60 mins in presence of GTP; type: protein-complex assay; details: dose 10.0 µM, time min <=60
DNA = test: Binding affinity to DNA (unknown origin) at 0.1 to 0.2 mM by agarose gel electrophoresis; type: nucleic-acid assay; details: dose mM 0.1-0.2
MDA-MB-231 [2] = test: Induction of mitochondrial membrane depolarization in human MDA-MB-231 cells at 10 uM measured after 24 hrs by JC-1 staining based flow cytometry analysis (reference value: 0.89 to 3.24 %); type: functional

Compound	IC50 (DLD-1)	IC50 (PC-3)	IC50 (HepG2)	IC50 (A549)	IC50 (DU-145)	IC50 (MCF7)	IC50 (MDA-MB-231 [1])	Activity (Tubulin (Homo sapiens))	Activity (DNA)	IC50 (HEK293)	Activity (MDA-MB-231 [2])
CC/C(=C(\c1ccccc1)c1ccc(OCCN(C)C)cc1)c1ccccc1 [TAMOXIFEN CITRATE]		11.7 µM			11.2 µM	6.2 µM	12.8 µM			27.3 µM	
COc1cc2c3cc(C=O)c4c(c3n(Cc3cccc(Cl)c3)c2cc1OC)C=CC(C)(C)O4	> 100 µM	70.5 µM	> 100 µM	> 100 µM	> 100 µM	72.4 µM	> 100 µM				
COc1ccc2c(c1)c1cc(C)c3c(c1n2Cc1ccccc1Br)C=CC(C)(C)O3	> 100 µM	15.2 µM	16 µM	56.5 µM	> 100 µM	59.1 µM	> 100 µM			> 100 µM	
COc1cccc(Cn2c3cc(OC)c(OC)cc3c3cc(C)c4c(c32)C=CC(C)(C)O4)c1	56.1 µM	20 µM	41.8 µM	29.1 µM	> 100 µM	65.6 µM	33.4 µM				
C#CCn1c2cc(OC)c(OC)cc2c2cc(C)c3c(c21)C=CC(C)(C)O3	> 100 µM	76.1 µM	38.8 µM	51.5 µM	> 100 µM	> 100 µM	9.7 µM			> 100 µM	
C=CCn1c2cc(OC)c(OC)cc2c2cc(C)c3c(c21)C=CC(C)(C)O3	75.3 µM	> 100 µM	42.9 µM	> 100 µM	> 100 µM	> 100 µM	36.5 µM			> 100 µM	
COc1cc2c3cc(C)c4c(c3n(Cc3cccc(C)c3)c2cc1OC)C=CC(C)(C)O4	73.4 µM	14.1 µM	9.6 µM	96.6 µM	> 100 µM	64.9 µM	28 µM			> 100 µM	
COc1cccc(Cn2c3cc(OC)c(OC)cc3c3cc(C=O)c4c(c32)C=CC(C)(C)O4)c1	> 100 µM	77.2 µM	> 100 µM	> 100 µM	> 100 µM	> 100 µM	> 100 µM				
CC(=O)O[C@H]1C(=O)[C@@]2(C)[C@H]([C@H](OC(=O)c3ccccc3)[C@]3(O)C[C@H](OC(=O)[C@H](O)[C@@H](NC(=O)c4ccccc4)c4ccccc4)C(C)=C1C3(C)C)[C@]1(OC(C)=O)CO[C@@H]1C[C@@H]2O								Active			
COc1cc2[nH]c3c4c(c(C=O)cc3c2cc1OC)OC(C)(C)C=C4	> 100 µM	27.3 µM	35.5 µM	33.6 µM	70 µM	> 100 µM	8.3 µM			> 100 µM	
COc1ccc2c(c1)c1cc(C)c3c(c1n2Cc1cccc(C)c1)C=CC(C)(C)O3	73.1 µM	35.5 µM	34.6 µM	35.7 µM	55.7 µM	48.2 µM	46.5 µM			> 100 µM	
N#CC(C#N)=NNc1cccc(Cl)c1 [CARBONYL CYANIDE M-CHLOROPHENYLHYDRAZONE]											12.75%
COc1ccc2c(c1)c1cc(C=O)c3c(c1n2Cc1ccccc1)C=CC(C)(C)O3	> 100 µM	32.9 µM	42.4 µM	36.6 µM	> 100 µM	32.8 µM	30.7 µM				

Now from value to compound, other results behind:

IC50 (DLD-1)	IC50 (PC-3)	IC50 (HepG2)	IC50 (A549)	IC50 (DU-145)	IC50 (MCF7)	IC50 (MDA-MB-231 [1])	Activity (Tubulin (Homo sapiens))	Activity (DNA)	Compound	IC50 (HEK293)	Activity (MDA-MB-231 [2])
35.9 µM	9.3 µM	8.2 µM	24.4 µM	36.6 µM	70.7 µM	36.7 µM			COc1cc2c3cc(C)c4c(c3n(Cc3ccccc3Br)c2cc1OC)C=CC(C)(C)O4	> 100 µM	
42.1 µM	29.2 µM	47.1 µM	80.1 µM	> 100 µM	71.9 µM	28.5 µM			COc1cc2c3cc(C)c4c(c3n(Cc3ccccc3)c2cc1OC)C=CC(C)(C)O4	> 100 µM	
54.2 µM	33.1 µM	9.1 µM	53.3 µM	> 100 µM	51.8 µM	> 100 µM			COc1ccc2c(c1)c1cc(C)c3c(c1n2Cc1cc(F)ccc1F)C=CC(C)(C)O3	> 100 µM	
52.8 µM	74.9 µM	41.8 µM	64 µM	> 100 µM	> 100 µM	46.5 µM			COc1ccc2c(c1)c1cc(C)c3c(c1n2Cc1ccccc1)C=CC(C)(C)O3	> 100 µM	
34.1 µM	13.3 µM	36.8 µM	88 µM	> 100 µM	> 100 µM	23.2 µM			COc1ccc2c(c1)c1cc(C)c3c(c1n2Cc1ccc(F)cc1F)C=CC(C)(C)O3	> 100 µM	
8.5 µM	9.6 µM	15.5 µM	71.7 µM	47.6 µM	44.9 µM	4.4 µM			COc1cc2c3cc(C)c4c(c3n(C/C(I)=C\I)c2cc1OC)C=CC(C)(C)O4	> 100 µM	
50.1 µM	> 100 µM	> 100 µM	> 100 µM	> 100 µM	> 100 µM	52.4 µM			C#CCn1c2ccc(OC)cc2c2cc(C)c3c(c21)C=CC(C)(C)O3	> 100 µM	
10.2 µM		8 µM						Active	COc1cccc2c1C(=O)c1c(O)c3c(c(O)c1C2=O)C[C@@](O)(C(=O)CO)C[C@@H]3O[C@H]1C[C@H](N)[C@H](O)[C@H](C)O1 [DOXORUBICIN]		
35.4 µM	7.4 µM	33.8 µM	14.8 µM	> 100 µM	29.4 µM	19.7 µM			COc1cc2c3cc(C)c4c(c3n(Cc3cc(Cl)ccc3Cl)c2cc1OC)C=CC(C)(C)O4		
54.7 µM	56.4 µM	33.3 µM	> 100 µM	> 100 µM	3.9 µM	2.6 µM			COc1ccc2[nH]c3c4c(c(C=O)cc3c2c1)OC(C)(C)C=C4 [CLAULANSINE F]	2.5 µM	
